Test results taken from publication PMC12071706, “Impact of SARS-CoV-2 RBM Mutations N501Y and E484K on ACE2 Binding: A Combined Computational and Experimental Study” (International Journal of Molecular Sciences, 2025).

Target: T1, human ACE2 protein (hACE2) (Homo sapiens, UniProt Q9BYF1)
T1 construct: His; purchased AbClonal (Woburn, MA, USA) RP01277; host or cells: HEK293
Assay: biochemical
Format: binding

T1 sequence (Q9BYF1 18-740): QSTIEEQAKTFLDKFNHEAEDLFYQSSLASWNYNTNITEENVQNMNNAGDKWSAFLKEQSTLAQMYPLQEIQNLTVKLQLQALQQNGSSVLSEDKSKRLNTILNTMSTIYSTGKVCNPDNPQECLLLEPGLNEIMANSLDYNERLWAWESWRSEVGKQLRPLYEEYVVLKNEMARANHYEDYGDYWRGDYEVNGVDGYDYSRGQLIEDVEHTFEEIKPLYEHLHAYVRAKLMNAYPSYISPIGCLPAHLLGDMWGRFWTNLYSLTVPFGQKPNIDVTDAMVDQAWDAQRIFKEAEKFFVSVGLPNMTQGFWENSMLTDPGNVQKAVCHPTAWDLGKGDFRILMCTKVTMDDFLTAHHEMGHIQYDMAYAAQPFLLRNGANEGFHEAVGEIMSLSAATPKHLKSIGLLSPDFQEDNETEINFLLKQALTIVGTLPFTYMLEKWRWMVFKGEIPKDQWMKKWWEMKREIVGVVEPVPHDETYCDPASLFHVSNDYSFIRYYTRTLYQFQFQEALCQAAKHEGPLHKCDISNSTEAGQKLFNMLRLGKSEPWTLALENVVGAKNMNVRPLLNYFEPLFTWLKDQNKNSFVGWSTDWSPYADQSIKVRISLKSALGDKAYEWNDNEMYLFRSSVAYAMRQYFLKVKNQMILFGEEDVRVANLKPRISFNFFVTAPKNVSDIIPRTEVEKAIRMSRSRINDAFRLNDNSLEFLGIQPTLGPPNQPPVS

SMILES	Kd	N (stoichiometry) (pH 7.4)	fold increase in binding affinity (pH 7.4)	thermodynamic signature (enthalpic vs entropic contribution) (pH 7.4)	ΔGITC (pH 7.4)	ΔHITC (pH 7.4)	−TΔSITC (pH 7.4)
CC(=O)NCC(=O)N[C@H](C(=O)N[C@@H](CCCCN)C(=O)NCC(=O)N[C@@H](Cc1ccccc1)C(=O)N[C@@H](CC(N)=O)C(=O)N[C@@H](CS)C(=O)N[C@@H](Cc1ccc(O)cc1)C(=O)N[C@@H](Cc1ccccc1)C(=O)N1CCC[C@H]1C(=O)N[C@@H](CC(C)C)C(=O)N[C@@H](CCC(N)=O)C(=O)N[C@@H](CO)C(=O)N[C@@H](Cc1ccc(O)cc1)C(=O)NCC(=O)N[C@@H](Cc1ccccc1)C(=O)N[C@@H](CCC(N)=O)C(=O)N1CCC[C@H]1C(=O)N[C@H](C(=O)N[C@@H](CC(N)=O)C(=O)NCC(N)=O)[C@@H](C)O)C(C)C [Zeta]	810 ± 60 nM	0.76 ± 0.03	5.8 fold	the enthalpic and entropic contributions are of comparable magnitude within the experimental error	-8.31 ± 0.07 kcal/mol	-4.26 ± 0.24 kcal/mol	-4.06 ± 0.25 kcal/mol
CC(=O)NCC(=O)N[C@H](C(=O)N[C@@H](CCCCN)C(=O)NCC(=O)N[C@@H](Cc1ccccc1)C(=O)N[C@@H](CC(N)=O)C(=O)N[C@@H](CS)C(=O)N[C@@H](Cc1ccc(O)cc1)C(=O)N[C@@H](Cc1ccccc1)C(=O)N1CCC[C@H]1C(=O)N[C@@H](CC(C)C)C(=O)N[C@@H](CCC(N)=O)C(=O)N[C@@H](CO)C(=O)N[C@@H](Cc1ccc(O)cc1)C(=O)NCC(=O)N[C@@H](Cc1ccccc1)C(=O)N[C@@H](CCC(N)=O)C(=O)N1CCC[C@H]1C(=O)N[C@H](C(=O)N[C@@H](Cc1ccc(O)cc1)C(=O)NCC(N)=O)[C@@H](C)O)C(C)C [Beta/Gamma]	310 ± 80 nM						
